# Literature values in US20230364199A1, “IMPROVEMENT OF PHYSICAL AND MENTAL WELL-BEING OF PATIENTS WITH HYPOPARATHYROIDISM” (ASCENDIS PHARMA BONE DISEASES A/S, priority 2020, published 2023).
# Experiments:
# [1] = test system: patients with hypoparathyroidism
# [2] = test system: patients with hypoparathyroidism; conditions: 54 patients, after 1 year of treatment, every other day
# [3] = test system: adults with chronic hypoparathyroidism; conditions: supplements adjusted to target serum calcium
Molecule,"9-min walk-run test ([1]; seven patients, before and after 3 years of treatment, twice a day)","fatigue and physical endurance described by patients ([1]; several patients, during PTH treatment)","QoL, mental component score and physical component score (RAND 36-Item Health Survey) [2]","QoL (SF-36), between-group differences versus placebo [3]"
PTH 1-34: PTH polypeptide of SEQ ID NO: 51 (PTH 1-34) (SVSEIQLMHNLGKHLNSMERVEWLRKKLQDVHNF; human PTH 1-34),no significant changes,less fatigue and greater physical endurance,–,–
"PTH 1-84: PTH polypeptide of SEQ ID NO: 1 (PTH 1-84) (protein, listed as Homo sapiens) SVSEIQLMHNLGKHLNSMERVEWLRKKLQDVHNFVALGAPLAPRDAGSQRPRKKEDNVLVESHEKSLGEADKADVNVLTKAKSQ",–,–,improvement in QoL,not statistically significant
